The target in experiment [1] is SHP-2 full length protein (Homo sapiens (Human), UniProt Q06124). Briefly: SHP-2 biochemical DiFMUP pseudosubstrate-fluorogenic assay. To be noted: 0.2 nM SHP-2, 1 μM IRS-1 activator peptide, 50 μM DiFMUP; read-out: SHP2 IC50. On the procedure: SHP-2 Biochemical Assay Materials Recombinant SHP-2 full length protein was generated in house. SHP-2 protein tyrosine phosphatase (PTP) domain protein (Catalog number SPR0217-20 ug), NaCl (Catalog number S6546-1L), and KCl (Catalog number 60142-500 mL) were purchased from Sigma-Aldrich (St. Louis, Mo.). IRS-1_[…](dPEG8)[…] peptide […]) was custom made by AnaSpec (Fremont, Calif.). DiFMUP substrate (Catalog number D6567), EDTA (Catalog number E177-500 mL), DTT (Catalog number P2325), and 384-well black polystyrene non-binding surface (Catalog number 3820) were purchased from Fisher Scientific (Hanover Park, Ill.). HEPES (Catalog number 15630-080) was purchased from Life Technologies (Pleasanton, Calif.), and Tween-20 (Catalog number 95059-250) was purchased from VWR (Radnor, Pa.). Method Inhibition of SHP-2 activity by small molecule inhibitors was monitored by a biochemical DiFMUP pseudosubstrate-fluorogenic assay. […] The reaction mix was added to the 384-well non-binding plate which had been pre-spotted with 1:3 serial diluted compounds from 10,000-0.005 nM, and incubated at room temperature for 90 min. DiFMUP substrate at final concentration of 50 μM was then added to the wells and incubated for additional 30 min at room temperature. The final reaction volume was 20 μl/well. […] The inhibitor dose response curves were generated using normalized IC50 regression curve fitting by in house dose response analysis tools. The wells with DMSO vehicle were used as controls (100% signal). The percent (%) control of SHP-2 compound was calculated as: (Compound well fluorescence counts/DMSO fluorescence counts)×100%.
SHP-2 full length protein, sequence (Q06124 whole entry): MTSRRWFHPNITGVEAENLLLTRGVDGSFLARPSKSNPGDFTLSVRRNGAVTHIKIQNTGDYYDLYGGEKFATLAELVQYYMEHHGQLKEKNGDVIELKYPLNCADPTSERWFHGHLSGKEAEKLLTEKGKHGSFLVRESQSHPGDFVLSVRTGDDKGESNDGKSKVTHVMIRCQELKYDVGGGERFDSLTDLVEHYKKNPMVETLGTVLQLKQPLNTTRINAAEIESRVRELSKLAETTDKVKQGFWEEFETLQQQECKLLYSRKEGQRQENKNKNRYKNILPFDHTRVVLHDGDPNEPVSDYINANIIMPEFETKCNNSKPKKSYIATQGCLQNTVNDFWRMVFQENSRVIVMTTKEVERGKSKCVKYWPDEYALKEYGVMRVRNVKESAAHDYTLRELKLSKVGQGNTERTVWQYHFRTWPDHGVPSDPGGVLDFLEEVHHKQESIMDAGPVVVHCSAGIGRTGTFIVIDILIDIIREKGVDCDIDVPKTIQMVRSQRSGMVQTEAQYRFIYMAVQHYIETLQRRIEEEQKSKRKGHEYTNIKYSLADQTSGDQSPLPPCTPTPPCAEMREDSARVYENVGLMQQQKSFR

The test system of a further experiment is NCI-H358 cells. Briefly: NCI-H358 3D tumor spheroid growth inhibition. Type of experiment: cell-based. The conditions noted are these: 3D spheroids, 7 days, 3D CellTiter Glo, cellular IC50 designated EC50, read-out: H358 EC50. An excerpt:
SHP-2 Cell Based Assay: […] Materials NCI-H358 cell line was purchased from [NT] number ATCC CRL-5807) (Manassas, Va.). RPMI-1640 (Catalog number 10-040-CM) was from Corning Cellgro (Manassas, Va.), Fetal Bovine Serum (FBS) (Catalog number SH30071.03) was from HyClone (Logan, Utanh), and 100× Penicillin/Streptomycin/L-Glutamine stock (Catalog no. 30-009-CI) and 384-well ULA plates (Catalog number 3830) were from Corning (Fremont, Calif.). Method […] At the day of assay, the cells were trypsinized and seeded at 1000 cells/70 μl/well in 384-well ULA plates and incubated at 37° C. incubator with 5% CO2 to allow spheroids to form. […] The plates were incubated for additional 7 days. Then 35 μl of medium from each well was removed, and replaced with 35 μl of 3D CellTiter Glo reagent from Promega. The wells were mixed by pipetting up and down with Biomek FX for 15 times to induce cell lysis and the plates were incubated at room temperature for additional 10 min to stabilize luminescent signal. The luminescence was then read by Envision. The inhibitor dose response curves were generated using normalized cellular IC50 (designated as EC50 in all FIGURES to distinguish from biochemical IC50s) by in house dose response analyses tools. The wells with DMSO vehicle were used as negative controls (0% inhibition). The % inhibition of SHP-2 compounds was calculated as: 100-[(Compound well luminescence counts/DMSO luminescence counts)×100%].
Background: In ATP-based viability assays light output follows the ATP content of the culture.

Like-named read-outs stand apart in the source and are kept apart here.

The IC50 is the concentration that inhibits the measured activity by half. In general, EC50 refers to the concentration at which the effect is half-maximal. `Cc1nc(N2CCC3(CCC[C@H]3N)CC2)n2ccnc2c1-c1cccc(Cl)c1Cl` (single isomer, unassigned) [Example 10]: the IC50 in experiment [1] was 0.052 µM. For the same compound, in the experiment with NCI-H358 cells, the EC50 is 0.97 µM. With `Cc1nc(N2CCC3(CCC[C@H]3N)CC2)n2ccnc2c1-c1cccc(Cl)c1Cl` (single isomer, unassigned) [Example 11], the IC50 in experiment [1] came out at 0.0036 µM. Moreover, in the experiment with NCI-H358 cells, the EC50 came to 0.06 µM. Turning to `Cc1nc(N2CCC3(CC2)CO[C@@H](C)[C@H]3N)n2ccnc2c1-c1cccc(Cl)c1Cl` [Example 1, (3S,4S)-8-(8-(2,3-dichlorophenyl)-7-methylimidazo[1,2-c]pyrimidin-5-yl)-3-methyl-2-oxa-8-azaspiro[4.5]decan-4-amine], the IC50 in experiment [1] turned out to be 0.0028 µM. Besides, in the experiment with NCI-H358 cells (Homo sapiens, NCI-H358, 168 h), the concentration for a half-maximal effect (EC50) turned out to be 0.059 µM. The like results for `Cc1nc(N2CCC3(CCC[C@H]3N)CC2)n2ccnc2c1-c1cccc2[nH]ccc12` [Example 2, (R)-8-(8-(1H-indol-4-yl)-7-methylimidazo[1,2-c]pyrimidin-5-yl)-8-azaspiro[4.5]decan-1-amine] were, in that order, 0.047 µM and 0.59 µM.

`Cc1nc(N2CCC3(CCC[C@H]3N)CC2)n2ccnc2c1-c1ccccc1` [Example 5, (R)-8-(7-methyl-8-phenylimidazo[1,2-c]pyrimidin-5-yl)-8-azaspiro[4.5]decan-1-amine]: the concentration for half-maximal inhibition (IC50) in experiment [1] came out at 0.09 µM. Further, in the experiment with NCI-H358 cells (Homo sapiens, NCI-H358, 168 h), the EC50 is 0.67 µM. The like results for `Cc1nc(N2CCC3(CCC[C@H]3N)CC2)n2ccnc2c1-c1cccc(C(F)(F)F)c1` [Example 7, (R)-8-(7-methyl-8-(3-(trifluoromethyl)phenyl)imidazo[1,2-c]pyrimidin-5-yl)-8-azaspiro[4.5]decan-1-amine] were, in that order, 1.3 µM and above 12.5 µM. On the same counts, the results for `Cc1nc(N2CCC3(CCC[C@H]3N)CC2)n2ccnc2c1-c1cccc(Cl)c1Cl` [Example 9, (R)-8-(8-(2,3-dichlorophenyl)-7-methylimidazo[1,2-c]pyrimidin-5-yl)-8-azaspiro[4.5]decan-1-amine] are 0.0041 µM and 0.12 µM. On the same counts, the results for `Cc1nc(N2CCC3(CCC[C@H]3N)CC2)n2ccnc2c1-c1sccc1Cl` [Example 12, (R)-8-(8-(3-chlorothiophen-2-yl)-7-methylimidazo[1,2-c]pyrimidin-5-yl)-8-azaspiro[4.5]decan-1-amine] are 0.09 µM and 0.42 µM. For `Cc1nc(N2CCC3(CCC[C@H]3N)CC2)n2ccnc2c1-c1cnn(C)c1C` [Example 13, (R)-8-(8-(1,5-dimethyl-1H-pyrazol-4-yl)-7-methylimidazo[1,2-c]pyrimidin-5-yl)-8-azaspiro[4.5]decan-1-amine], in experiment [1], the IC50 was 1 µM. In the experiment with NCI-H358 cells (Homo sapiens, NCI-H358, 168 h), the EC50 turned out to be 3.3 µM.

In the case of `Cc1nc(N2CCC3(CCC[C@H]3N)CC2)n2ccnc2c1-c1cnc2ccccn12` [Example 15, (R)-8-(8-(imidazo[1,2-a]pyridin-3-yl)-7-methylimidazo[1,2-c]pyrimidin-5-yl)-8-azaspiro[4.5]decan-1-amine], the IC50 in experiment [1] was determined as 0.35 µM. In addition, the EC50 in the experiment with NCI-H358 cells (Homo sapiens, NCI-H358, 168 h) was found to be 3.2 µM. Turning to `Cc1nc(N2CCC3(CCC[C@H]3N)CC2)n2ccnc2c1Sc1ccnc(N)c1Cl` [Example 18, (R)-8-(8-((2-amino-3-chloropyridin-4-yl)thio)-7-methylimidazo[1,2-c]pyrimidin-5-yl)-8-azaspiro[4.5]decan-1-amine], the IC50 in experiment [1] worked out at 0.0056 µM. The EC50 in the experiment with NCI-H358 cells (Homo sapiens, NCI-H358, 168 h) came to 0.075 µM. On the same counts, the results for `Cc1nc(N2CCC3(CCC[C@H]3N)CC2)n2ccnc2c1-c1cccc(Cl)c1` [Example 23, (R)-8-(8-(3-chlorophenyl)-7-methylimidazo[1,2-c]pyrimidin-5-yl)-8-azaspiro[4.5]decan-1-amine] are 0.16 µM and 1.5 µM. `Cc1nc(N2CCC3(CCC[C@H]3N)CC2)n2ccnc2c1-c1ccc(Cl)c(Cl)c1` [Example 25, (R)-8-(8-(3,4-dichlorophenyl)-7-methylimidazo[1,2-c]pyrimidin-5-yl)-8-azaspiro[4.5]decan-1-amine]: in experiment [1], the IC50 amounted to 0.095 µM. The EC50 in the experiment on NCI-H358 cells (Homo sapiens, NCI-H358, 168 h) worked out at 1.5 µM. The like results for `Cc1nc(N2CCC3(CCC[C@H]3N)CC2)n2ccnc2c1-c1ccc(Cl)cc1Cl` [Example 26, (R)-8-(8-(2,4-dichlorophenyl)-7-methylimidazo[1,2-c]pyrimidin-5-yl)-8-azaspiro[4.5]decan-1-amine] were, in that order, 0.025 µM and 0.36 µM.

On to `Cc1nc(N2CCC3(CCC[C@H]3N)CC2)n2ccnc2c1-c1ccnc(F)c1Cl` [Example 28, (R)-8-(8-(3-chloro-2-fluoropyridin-4-yl)-7-methylimidazo[1,2-c]pyrimidin-5-yl)-8-azaspiro[4.5]decan-1-amine], for which the IC50 in experiment [1] is 0.074 µM. For the same compound, the EC50 with NCI-H358 cells (Homo sapiens, NCI-H358, 168 h) worked out at 0.38 µM. `Cc1nc(N2CCC3(CCC[C@H]3N)CC2)n2ccnc2c1-c1ccnc(N)c1Cl` [Example 29, (R)-8-(8-(2-amino-3-chloropyridin-4-yl)-7-methylimidazo[1,2-c]pyrimidin-5-yl)-8-azaspiro[4.5]decan-1-amine]: the IC50 in experiment [1] was found to be 1.3 µM. Also, the EC50 in the experiment on NCI-H358 cells (Homo sapiens, NCI-H358, 168 h) amounted to 5.5 µM. The like results for `C[C@@H]1OCC2(CCN(c3ncc(Sc4ccnc(N)c4Cl)c4nccn34)CC2)[C@@H]1N` [Example 31, (3S,4S)-8-(8-((2-amino-3-chloropyridin-4-yl)thio)imidazo[1,2-c]pyrimidin-5-yl)-3-methyl-2-oxa-8-azaspiro[4.5]decan-4-amine] were, in that order, 0.005 µM and 0.053 µM.

Turning to `Cc1nc(N2CCC3(CC2)C[C@@H](O)C[C@H]3N)n2ccnc2c1-c1cccc(Cl)c1Cl` [Example 33, (2R,4R)-4-amino-8-(8-(2,3-dichlorophenyl)-7-methylimidazo[1,2-c]pyrimidin-5-yl)-8-azaspiro[4.5]decan-2-ol], the IC50 in experiment [1] came to 0.0031 µM. The EC50 in the experiment on NCI-H358 cells (Homo sapiens, NCI-H358, 168 h) stood at 0.032 µM. The like results for `N[C@@H]1C[C@H](O)CC12CCN(c1ncc(Sc3cccc(Cl)c3Cl)c3nccn13)CC2` [Example 35, (2R,4R)-4-amino-8-(8-((2,3-dichlorophenyl)thio)imidazo[1,2-c]pyrimidin-5-yl)-8-azaspiro[4.5]decan-2-ol] were, in that order, 0.0012 µM and 0.032 µM. `CC1(N)CCN(c2ncc(Sc3ccnc(N)c3Cl)c3nccn23)CC1` [Example 36]: in the experiment with NCI-H358 cells (Homo sapiens, NCI-H358, 168 h), the EC50 was above 12.5 µM. For the compound `C[C@@H]1OCC2(CCN(c3ncc(Sc4cc(N)ncc4C(F)(F)F)c4nccn34)CC2)[C@@H]1N` [Example 38, (3S,4S)-8-(8-((2-amino-5-(trifluoromethyl)pyridin-4-yl)thio)imidazo[1,2-c]pyrimidin-5-yl)-3-methyl-2-oxa-8-azaspiro[4.5]decan-4-amine], the IC50 in experiment [1] is 0.0059 µM. The EC50 with NCI-H358 cells (Homo sapiens, NCI-H358, 168 h) is 0.059 µM. Turning to `C[C@@H]1OCC2(CCN(c3ncc(Sc4cc(N)ncc4C(F)(F)F)c4ncc(Cl)n34)CC2)[C@@H]1N` [Example 39], the EC50 with NCI-H358 cells (Homo sapiens, NCI-H358, 168 h) is 0.57 µM. Still for that read-out and setting: to `N[C@@H]1CCCC12CCN(c1ncc(Sc3cccc4ncccc34)c3nccn13)CC2` [Example 84] belongs 0.24 µM. Same read-out and setting: then `Cc1nc(N2CCC3(CC2)Cc2cc(F)ccc2[C@H]3N)n2ccnc2c1-c1cccc(Cl)c1Cl` [Example 133, (S)-1′-(8-(2,3-dichlorophenyl)-7-methylimidazo[1,2-c]pyrimidin-5-yl)-5-fluoro-1,3-dihydrospiro[indene-2,4′-piperidin]-1-amine], with 0.021 µM; and `Nc1cccc(Sc2cnc(N3CCC4(CC3)Cc3ccccc3[C@H]4N)n3ccnc23)c1Cl` [Example 137, (S)-1′-(8-((3-amino-2-chlorophenyl)thio)imidazo[1,2-c]pyrimidin-5-yl)-1,3-dihydrospiro[indene-2,4′-piperidin]-1-amine], with 0.012 µM.

The values above are taken from US11179397B2, “Imidazopyrimidine derivatives” (Gilead Sciences, Inc., priority 2018, dated 2021).
